Experimental data reported in the supplement of paper PMC11451515.

System: NOMO1
Assay: cell viability relative to DMSO control; higher = less cytotoxic
Details: RPMI 5 mM glucose + 10% dialyzed FBS, 48 h
In short: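 Viability, reported as a per-plate percentage of DMSO wells with cell-free wells as background, came from CellTiter-Glo One luminescence. Reading took place after 48 h at 37°C. Before that, NOMO1 or SEM (500 cells/well) or P12-Ichikawa (1000 cells/well) leukemia cells, adapted for at least four passages in each medium, were seeded in 1536-well plates (5 μl) and pin-dosed with library compounds in DMSO, 47 μM to 0.79 nM over 11 threefold points.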

`CCCCc1ccc(N[S+](=O)([O-])c2ccc(C)c(C(=O)N3CCN(c4cccc(C)c4C)CC3)c2)cc1` was tested, and the cell viability (0.000781 µM) was 125%, the cell viability (0.00234 µM) was 128% and the cell viability (0.00702 µM) was 120%. For the same compound, the cell viability (0.0211 µM) was 126%, the cell viability (0.0632 µM) was 126% and the cell viability (0.19 µM) was 130%. For the same compound, the cell viability (0.569 µM) was 130%, the cell viability (1.71 µM) was 119% and the cell viability (5.12 µM) was 131%. The cell viability (15.4 µM) was 126% and the cell viability (46.1 µM) was 108%.

`COc1ccc2c(c1)CC[C@@H](CN(C)CC(=O)O)[C@H]2c1ccccc1` gave a cell viability (0.000781 µM) of 120%, a cell viability (0.00234 µM) of 125% and a cell viability (0.00702 µM) of 125%. For the same compound, the cell viability (0.0211 µM) was 101%, the cell viability (0.0632 µM) was 127% and the cell viability (0.19 µM) was 130%. For the same compound, the cell viability (0.569 µM) was 125%, the cell viability (1.71 µM) was 123% and the cell viability (5.12 µM) was 85.2%. It also gave a cell viability (15.4 µM) of 29.8% and a cell viability (46.1 µM) of 36.6%.
